“Also recorded” adds a separate entry of the source.
Assays:
Staphylococcus aureus [1] = test: Assessment of bactericidal activity (HUVEC media); assay type: cell-based
Description: FIG. 6B illustrates that neither cytotoxicity nor bactericidal activity is detected. Cultures of Staphylococcus aureus that had been incubated with the vehicle control DMSO or with ML 141 (1 hour, 37° C., 225 rpm) were serially diluted, plated onto blood agar, and incubated (18 hours, 37° C.). Colonies were enumerated and colony forming units (CFU)/ml determined. CFU/ml were not different amongst the groups (p>0.05 by t-test; n=2/treatment). […]

Staphylococcus aureus [2] = test: Intracellular S. aureus population in HUVEC 48 hours post infection, CFU; assay type: cell-based; conditions: HUVEC pretreated 18 hours (1.0 μM FIG. 7; 10 μM FIG. 11), infected 1 hour
Description: FIG. 7 is a graph illustrating suppression of intracellular population sustained over time. Human umbilical vein endothelial cells (HUVEC) were pretreated (1.0 μM, 18 hours) with the vehicle control dimethyl sulfoxide (DMSO) or ML 141 and infected with Staphylococcus aureus (1 hour). At 48 hours, intracellular bacteria were recovered, serial dilutions incubated on tryptic soy agar and colonies enumerated. Data are presented as % control, ±SEM (*less than vehicle control; p≤0.05 by t-test; n=3-5/treatment).
FIG. 11 is a graph illustrating suppression of intracellular population sustained over time. […]
Two days prior to the assay, TSB is inoculated with S. aureus (American Type Culture Collection #29213) and incubated overnight (225 rpm, 37° C.). […] To detect the level of infection using flow cytometry, cells that have been infected with fluorescently-labeled bacteria are washed extensively with PBS, lifted from 96-well plate by incubation with trypsin, washed extensively in FACS buffer (2% BSA/0.1% sodium azide/PBS), fixed (FACS buffer containing 0.74% formaldehyde), and are counted using an Accuri flow cytometer (BD, Franklin Lakes, N.J.). They are also lifted from culture dishes using cell scrapers, pelleted, fixed (1% BSA/0.74% formaldehyde/PBS), and are counted using an Accuri flow cytometer. […]

Staphylococcus aureus [3] = test: Assessment of bactericidal activity (DMEM, 10% fetal bovine serum); assay type: cell-based; conditions: 3.2 × 10^6 CFU S. aureus, 1 h in DMEM with 10% fetal bovine serum; head prints 20 mM
actin stress fibers = test: Actin stress fiber depolymerization in HUVEC during S. aureus infection; assay type: cell-based, human; conditions: 18-20 h pretreatment, S. aureus 1 h
Description: FIG. 8A is an image depicting ML 141 limiting actin stress fiber depolymerization during infection. Human umbilical vein endothelial cells (HUVEC) were incubated with ML 141 or with the vehicle control polyethylene glycol (PEG) 18-20 h prior to infection with Staphylococcus aureus (1 h). Actin was detected using Alexa Fluor 488 phalloidin. Arrows indicate intact actin stress fibers. Arrowhead indicates cell lacking actin stress fibers. 100 cells/treatment were evaluated from randomly selected fields. Data are presented as the % of cells in which actin stress fibers were not detected. Scale bar is 50 μm.
FIG. 8B is an image depicting RSM 06 limiting actin stress fiber depolymerization during infection. Human umbilical vein endothelial cells (HUVEC) were incubated with RSM 06 or with the vehicle control polyethylene glycol (PEG) 18-20 h prior to infection with Staphylococcus aureus (1 h). Actin was detected using Alexa Fluor 488 phalloidin. 200 cells/treatment were evaluated from randomly selected fields. Data are presented as the % of cells in which actin stress fibers were not detected. Scale bar is 50 μm.
FIG. 8C is an image depicting RSM 16 limiting actin stress fiber depolymerization during infection. Human umbilical vein endothelial cells (HUVEC) were incubated with RSM 16 or with the vehicle control polyethylene glycol (PEG) 18-20 h prior to infection with Staphylococcus aureus (1 h). Actin was detected using Alexa Fluor 488 phalloidin. 200 cells/treatment were evaluated from randomly selected fields. Data are presented as the % of cells in which actin stress fibers were not detected. Scale bar is 50 μm.
HUVEC are plated at 1×10^5 cells/ml into 35 mm glass-bottom dishes (MatTek, Ashland, Mass.) are coated with Attachment Factor, are pretreated, and are infected (1.2×10^8 CFU) as described above. […] Alexa 488 is excited by the 488 nanommeter Ar laser line and is detected using a 505-530 nanometer bandpass filter. […] Maximum pixel projections from the Z-stacks are generated and are analyzed for actin morphology.

host cell = test: Host cell cytotoxicity in vitro (preliminary data); assay type: cell-based

COc1ccc(C2CC(c3ccccc3)=NN2c2ccc(S(N)(=O)=O)cc2)cc1 (stereo not drawn) [ML 141, 4-[3-(4-methoxyphenyl)-5-phenyl-3,4-dihydropyrazol-2-yl]benzenesulfonamide]
CFU (×10^8 ± SEM), Compound (10 μM) (Staphylococcus aureus [1]; 1.2 × 10^8 CFU S. aureus, 1 h in HUVEC media, 10 μM): 8.8 ± 2.9 ×10^8 CFU
Bactericidal activity (in words) (Staphylococcus aureus [1]; S. aureus incubated 1 h with compound, FIG. 6B, Tables 6 and 7): not detected
viable intracellular bacteria recovered 48 hours post-infection (Staphylococcus aureus [2]): diminished the number of viable bacteria recovered; also recorded: lower
CFU/mL (×10^9 ± SEM), Compound (Staphylococcus aureus [3]): 0.9 ± 0.09 ×10^9 CFU/mL
depolymerization of actin stress fibers during infection (actin stress fibers): remained intact
concentration at which host cell cytotoxicity was undetectable (host cell): below 30 μM

— patent US10183032B2, “Methods for treating bacterial infection” (Ball State Innovation Corporation, priority 2012, dated 2019)
